Data as given in patent US9017672B2, “Hexon Tat-PTD modified adenovirus and uses thereof” (Immunicum Aktiebolag, priority 2012, dated 2015).

What was measured:
[1] = system: cisplatin-sensitive SK-N-FI cells; assay: Relative cell viability by MTS assay, virus or drug; format: cell-based; conditions: drug
Protocol: (§1) FIG. 25. Oncolytic adenovirus in combination with chemotherapy drugs. A cisplatin-insensitive clone of SK-N-FI and doxoru bicin-insensitive, etoposide-insensitive and vincristine-insensitive clones of SH-SY-5Y were established through repeated cycles of culture with increasing drug concentration. (A-D) Drug-sensitive (black lines) and drug-insensitive (grey dotted lines) neuroblastoma cells were then treated with viruses or drugs. The relative cell viability was analyzed after 4 days by MTS assay. (A) Oncolytic virus and cisplatin killing of SK-N-FI cells. (B) Oncolytic virus and etoposide killing of SH-SY-5Y cells. (C) Oncolytic virus and doxorubicin killing of SH-SY-5Y cells. (D) Oncolytic virus and vincristine killing of SH-SY-5Y cells. All data are shown as mean±SD from four independent experiments each with triplicate samples. (E) BON, NCI-H727 and QGP-1 cell lines were treated with PTD-based oncolytic adenovirus Ad5PTD(i/CgA-E1a-miR122T6) with different evg/cell in absence or presence of 10 μg/mL or 200 μg/mL cyclophosphamide. The relative cell viability was analyzed after 6 days by MTS assay.
(§2) A cisplatin-insensitive clone of the SK-N-FI neuroblastoma cell line and doxorubicin-, etoposide- and vincristine-insensitive clones of SH-SY-SY were established and treated with viruses at different evg/cell or drugs at various concentrations. The relative cell viability was analyzed by MTS assay. […] Ad5PTD(WT) also killed cisplatin-sensitive and insensitive SK-N-FI with the same efficacy (FIG. 25A).

[2] = system: cisplatin-insensitive SK-N-FI cells; assay: as above; format: cell-based
Protocol: as §1, §2

human neutrophils = assay: Transwell migration assay of neutrophils against supernatants of virus-transduced BON cells; format: cell-based; conditions: supernatants 48 hours post-transduction, MOI 10 FFU/cell
Protocol: (§3) BON cells were transduced with viruses Ad5PTDf35(D24-sNAP) or Ad5PTDf35(D24) at MOI 10 FFU/cell. Supernatants were harvested 48 hours post-transduction. (a) Transwell migration assay of human neutrophils isolated from 4 different individuals (2×10^5 cells/well) against harvested supernatants for 2 hours at 37° C. All samples were analyzed in triplicates and the data is represented as mean±SD of number of cells migrated. Supernatant from untransduced BON cells were used as control, (***p<0.001; n=12). (b) Granulocyte activation assay with supernatants from virus-transduced BON cells for 30 minutes at 37° C. Activation was measured in terms of ROI production, which was monitored using fluorescent dye DHR123. Supernatant from untransduced BON cells were used as control. At least 10000 events were recorded in the flow cytometer and MFI of DHR123 was recorded, (**p<0.01; *p<0.05; n=5). (c) Mice bearing BON tumors were treated with two intratumoral injections of Ad5PTDf35(D24-sNAP) or Ad5PTDf35(Δ24) (Indicated dotted arrows) and 2 mice per group were sacrificed, blood and tumor samples were drawn at different time points (indicated by solid arrows). Serum was separated from blood by centrifugation at 300 g for 10 min. Concentration of various cytokines determined by ELISA are represented in (d) TNF-α, (e) MIP2-α and (f) IL12/23 p40. […] All samples were analyzed in duplicates. […]

[3] = system: TNF-α, MIP2-α, IL12/23 p40; assay: Serum cytokines by ELISA after intratumoral virus injections; format: in vivo; conditions: BON tumor-bearing mice, two intratumoral injections
Protocol: as §3

neutrophils = assay: Granulocyte activation assay, ROI production (DHR123); format: cell-based; conditions: supernatants of transduced BON cells, 30 minutes
Protocol: as §3

N.N.[Cl][Pt][Cl] [cisplatin]
IC50 [1]: 8 µM | IC50 ([2]; cisplatin-insensitive SK-N-FI, drug): 100 µM | more drug needed to kill insensitive compared to sensitive cells ([2]; cisplatin-insensitive vs cisplatin-sensitive SK-N-FI): 12 fold

B1: HP-NAP: Helicobacter pylori Neutrophil Activating Protein, here secreted from virus-transduced cells (protein)
chain: MKTFEILKHLQADAIVLFMKVHNFHWNVKGTDFFNVHKATEEIYEEFADMFDDLAERIVQLGHHPLVTLSEAIKLTRVKEETKTSFHSKDIFKEILEDYKYLEKEFKELSNTAEKEGDKVTVTYADDQLAKLQKSIWMLQAHLA
neutrophil migration (human neutrophils): efficiently induce neutrophil migration | induction of serum cytokines [3]: induced proinflammatory cytokines (TNF-α and MIP2-α) and Th1 type cytokines (IL12/23 p40) | neutrophil activation, release of reactive oxygen species (neutrophils): activated them to release reactive oxygen species
